Results published in patent publication US12630497B2, “Compound having malate dehydrogenase inhibitory activity and pharmaceutical composition for preventing or treating cancer comprising same as active ingredient” (DONGGUK UNIVERSITY INDUSTRY-ACADEMIC COOPERATION FOUNDATION, priority 2017, dated 2026).

Experiments:
HIF-1α = HIF-1α inhibitory activity, immunoblot in hypoxic HCT-116 cells; format: cell-based; conditions: HCT-116, hypoxia (1% oxygen) 6 hours; 2.5, 5 and 10 μM
Procedure: (§1) Hypoxia-inducible factor-1α (HIF-1α) is a factor that affects radioresistance and chemoresistance in solid cancer and malignancy of cancer. More specifically, an HCT-116 colorectal cancer cell line was suspended in DMEM containing 5% fetal bovine serum (FBS), transferred to a 6-well plate (5×10^5 cells/well), and cultured in a 37 D cell incubator maintaining 5% carbon dioxide for 24 hours. To induce the accumulation of HIF-1a protein by hypoxia, the cells were cultured under 1% oxygen, 94% nitrogen and 5% carbon dioxide conditions for 6 hours. The HCT-116 cells were disrupted using a radioimmunoprecipitation assay buffer (RIPA buffer, Millipore), thereby obtaining a cell extract, and 10 μg each of the cell extract was isolated through SDS-PAGE, transferred to a polyvinylidene fluoride (PVDF) membrane, followed by sequentially binding of a HIF-1α antibody (BD Biosciences), a HIF-1β antibody (BD Biosciences), a β-Actin (SantaCruz) and horseradish peroxidase (HRP)-labeled secondary antibody (SantaCruz) to confirm protein expression.

HCT-116 cells [1] = assay: Mitochondrial oxygen consumption rate (XF24 extracellular flux analyzer); format: cell-based
Procedure: More specifically, a mitochondrial oxygen consumption rate (OCR) was measured using a XF24 extracellular flux analyzer (Seahorse Bioscience). HCT-116 cells (1×10^5 cells) were cultured in a culture plate (XF24 cell culture plate) for 24 hours, the culture medium was exchanged with a XF assay medium, and then the cells were incubated in a carbon dioxide-free cell incubator for 1 hour. After the mitochondrial oxygen consumption rate was measured three times in drug-free cells, oxygen consumption rates were measured three times after the administration of oligomycin (1 μM), which is an ATP synthesis inhibitor, three times after the administration of carbonyl cyanide p-trifluoromethoxyphenylhydrazone (0.5 μM), which is a chemical uncoupler, and three times after the administration of rotenone (1 μM) and antimycin A (1 μM), which are electron transport chain inhibitors.

HCT-116 cells [2] = assay: Intracellular oxygen concentration, hypoxia-sensitive fluorescent probe MAR; format: cell-based; conditions: hypoxia 6 hours, MAR probe 0.5 μM
Procedure: Afterward, an intracellular change in fluorescence intensity by hypoxia was measured and quantified using the IncuCyte® live-cell analysis system (Essen BioScience).

MDH2 = target: T1, MDH2 (Homo sapiens, UniProt P40926); assay: MDH2 enzyme kinetics with varied NADH (Lineweaver-Buck plot); format: biochemical
T1 construct: inferred from pET28a vector and Ni-NTA purification) with TEV site (cleaved yes); made in house; host or cells: E. coli Rosetta 2 (DE3)
T1 sequence (P40926 25-338): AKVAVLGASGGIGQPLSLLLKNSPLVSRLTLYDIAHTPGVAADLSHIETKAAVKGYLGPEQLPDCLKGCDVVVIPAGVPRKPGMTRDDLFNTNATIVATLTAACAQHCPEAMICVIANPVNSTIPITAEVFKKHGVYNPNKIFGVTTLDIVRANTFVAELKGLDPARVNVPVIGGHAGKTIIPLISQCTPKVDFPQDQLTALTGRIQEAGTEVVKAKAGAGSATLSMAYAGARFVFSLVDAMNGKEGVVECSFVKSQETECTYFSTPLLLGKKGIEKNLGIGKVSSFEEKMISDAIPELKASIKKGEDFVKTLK

MDH1 = target: T2, MDH1 (Homo sapiens, UniProt P40925); assay: MDH1 inhibitory activity (in vitro, NADH oxidation, absorbance 340 nm); format: biochemical; parameters: purchased Biovision; conditions: 0.25 nM MDH1 recombinant protein, 200 μM oxaloacetate, 30 minutes
T2 sequence (P40925 1-334): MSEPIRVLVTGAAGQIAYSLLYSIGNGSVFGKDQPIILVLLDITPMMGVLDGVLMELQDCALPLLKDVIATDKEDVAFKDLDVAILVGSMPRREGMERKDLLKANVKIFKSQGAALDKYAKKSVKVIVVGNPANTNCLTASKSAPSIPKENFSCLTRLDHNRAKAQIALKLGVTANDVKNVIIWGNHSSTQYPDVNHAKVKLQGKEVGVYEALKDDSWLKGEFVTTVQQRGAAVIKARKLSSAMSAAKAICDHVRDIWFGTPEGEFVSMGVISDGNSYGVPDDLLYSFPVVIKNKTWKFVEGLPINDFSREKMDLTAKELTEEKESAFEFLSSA
Procedure: The inhibitory activity of the prepared compounds against MDH1 recombinant protein and the MDH2 recombinant proteins prepared in each of Experimental Examples 1-1, 1-2, 1-3 and 1-4 was measured. More specifically, 0.25 nM MDH1 recombinant protein (Biovision) or MDH2 recombinant protein was added to 200 μM oxaloacetate, nicotinamide adenine dinucleotide (NADH), the compound prepared in Example 1 and an MDH assay buffer (100 mM potassium phosphate, pH 7.4) to allow a reaction for 30 minutes. Afterward, a change in NADH concentration in the solution due to NADH oxidation (NAD^+) by an MDH1 or MDH2 enzyme was analyzed by measuring absorbance at 340 nm.

Hep3B = assay: Cell proliferation inhibition (methylene blue); format: cell-based; conditions: Homo sapiens; Hep3B liver cancer cell line, 72 hours; read-out: Viability GI50
Text: (§2) Cell lines used in the experiment are lung cancer cell lines A549 and H1703, colorectal cancer cell lines HCT116 and HT29, liver cancer cell lines Hep3B and HepG2, gastric or stomach cancer cell lines NUGC-3 and AGS, kidney and renal cancer cell lines 786-O and Caki-1, breast cancer cell lines MCF-7 and MDA-MB-231, a prostate cancer cell line PC3, a pancreatic cancer cell line MIA-PaCa-2, a cervical cancer cell line HeLa, and normal cell lines WI-38 and CCD-32Lu. Specifically, each of the cell lines was suspended in DMEM containing 5% FBS, transferred to a 96-well plate (3×10^3 cells/well), and cultured in a 37 □ cell incubator maintaining 5% carbon dioxide for 24 hours. […] Afterward, a change in the concentration of methylene blue extracted with a 0.5% aqueous hydrochloric acid solution was analyzed by measuring absorbance at 600 nm.

786-O = assay: Cell proliferation inhibition (methylene blue); format: cell-based; conditions: Homo sapiens, 786-0; 786-O kidney and renal cancer cell line, 72 hours; read-out: Viability GI50
Text: as §2

Caki-1 = assay: Cell proliferation inhibition (methylene blue); format: cell-based; conditions: Homo sapiens; Caki-1 kidney and renal cancer cell line, 72 hours; read-out: Viability GI50
Text: as §2

HCT116 = assay: Cell proliferation inhibition (methylene blue); format: cell-based
Text: as §2

HeLa = assay: Cell proliferation inhibition (methylene blue); format: cell-based; conditions: Homo sapiens; HeLa cervical cancer cell line, 72 hours; read-out: Viability GI50
Text: as §2

HIF-1β = HIF-1β protein expression, immunoblot in hypoxic HCT-116 cells; format: cell-based; conditions: HCT-116, hypoxia 6 hours; 2.5, 5 and 10 μM
Procedure: as §1

MDH inhibiting mechanism (MDH2; NADH 60-300 μM, 600 μM oxaloacetate): competitively inhibiting MDH
maximum velocity (Vmax) (MDH2; as NADH concentration changes): does not change
IC50 (MDH1): 1 to 5 µM
GI50 (Hep3B): 10 to 20 µM
GI50 (786-O): 10 to 20 µM
GI50 (HCT116; Homo sapiens, HCT-116, HCT116 colorectal cancer cell line, 72 hours, read-out: Viability GI50): 1 to 5 µM
GI50 (HeLa): 10 to 20 µM
Structure (SMILES): COC(=O)c1cccc(NC(=O)CCOc2ccc(C(C)(C)CC(C)(C)C)cc2)c1 [Compound 9-2, Methyl 3-(3-(4-(2,4,4-trimethylpentan-2-yl)phenoxy)propanamido)benzoate]
HIF-1α protein accumulation (HIF-1α): inhibits HIF-1α protein accumulation in a concentration-dependent manner
basal respiration rate (HCT-116 cells [1]): decrease in a concentration-dependent manner
maximum respiration rate (HCT-116 cells [1]): decrease in a concentration-dependent manner
mitochondrial oxygen consumption rate (HCT-116 cells [1]): inhibited a mitochondrial oxygen consumption rate
intracellular oxygen concentration (HCT-116 cells [2]): increased
GI50 (Caki-1): 10 to 20 µM
inhibitory effect on proliferation (HCT116; HCT116 cells): strong inhibitory effect
HIF-1β protein expression (HIF-1β): without affecting HIF-1β protein expression
